# Measured values: BindingDB's records for patent US20240116947 (Chiesi Farmaceutici, 2024)
# Biological target: T1, TGF-beta receptor type-1 (Homo sapiens, UniProt P36897)
# T1 sequence (P36897 whole entry): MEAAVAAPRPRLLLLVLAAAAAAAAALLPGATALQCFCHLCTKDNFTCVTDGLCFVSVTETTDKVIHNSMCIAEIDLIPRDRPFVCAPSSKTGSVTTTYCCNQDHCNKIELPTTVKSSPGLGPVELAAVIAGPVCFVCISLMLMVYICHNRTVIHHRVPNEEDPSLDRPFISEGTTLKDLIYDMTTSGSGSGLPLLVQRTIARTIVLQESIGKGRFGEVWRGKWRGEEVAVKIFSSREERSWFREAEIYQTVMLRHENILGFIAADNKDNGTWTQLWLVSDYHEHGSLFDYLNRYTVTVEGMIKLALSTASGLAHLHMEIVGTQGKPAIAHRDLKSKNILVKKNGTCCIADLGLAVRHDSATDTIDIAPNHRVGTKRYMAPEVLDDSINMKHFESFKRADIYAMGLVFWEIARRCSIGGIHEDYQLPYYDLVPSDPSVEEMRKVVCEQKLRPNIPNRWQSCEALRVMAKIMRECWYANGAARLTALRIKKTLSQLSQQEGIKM
# Test: Enzymatic Activity Assay
# Description: The enzymatic activity of compounds of the present invention was monitored measuring the formation of ADP using the ADP-GLO Kinases assay. Following the incubation of the purified enzyme, a substrate and ATP, the produced ADP was converted into ATP, which in turn was converted into light by Ultra-Glo Luciferase. The luminescent signal positively correlated with ADP amount and kinase activity. […] All reactions/incubations were performed at 25° C. Compound and ALK5 kinase were mixed and incubated for 15 mins. […] After an incubation of 150 min, the reaction was stopped, and ADP production detected with ADP-Glo kit according to manufacturer's indications. The assay was performed in 384-well format and was validated using a selection of reference compounds that was tested in 11 point concentration-response curve.
smiles,measurement,value
"O=C(CCN(C1COC1)C1COC1)Nc1cc(N2CCOc3cnc(-c4cc(Cl)ccc4F)cc32)ccn1 [US20240116947, Example 21]",IC50,< 1 nM
